Laboratory results taken from patent publication US20060206946A1, “Method of disrupting heme transport in nematodes and of modelling and evaluating eukaryotic heme transport” (priority 2005, published 2006).

Experiments:
Assay type in all cases: in vivo, Caenorhabditis elegans
C. elegans = settings: pulse 40 μM ZnMP 3 h
Description: (C) Fluorescent metabolic labeling of worms with either 40 μM hemin (images 1, 4) or 40 μM ZnMP/4 μM hemin (images 2, 3, 5, 6) for 3 h followed by confocal microscopy with a 546 laser (images 1-3) and DIC optics (images 4-6). Arrowheads indicate ZnMP fluorescence accumulation within intestinal cells and developing embryos. For clarity, the boxed image in 2 is magnified in images 3 and 6. (Bar=100 μm).
(D) Worms were incubated with 40 μM ZnMP/4 μM hemin for 16 h followed by a chase with 40 μM hemin. Worms were analyzed by epifluorescence microscopy (TRITC channel) and DIC optics. Experiments were performed either in the absence (images 1-4) or presence (images 5-8) of NaN3 during the chase periods to test for the non-specific loss of ZnMP fluorescence. Photomicrograph 4 is shown at a lower power to depict the complete loss of ZnMP fluorescence. (Bar=100 μm). For (C) and (D), four separate experiments were performed with a minimum of 50 worms per data point per experiment. The data are representative for >90% of worms analyzed.
Because of the nature of the growth curve, we reasoned that heme homeostatis in C. elegans may be regulated in accordance with organismic needs and metabolic demands. […]
Pulse-Chase Analysis. […] At timed intervals, aliquots of worms were removed into the appropriate medium containing 10 mM NaN3 mounted on a slide and immediately analyzed with a 543 He/Ne laser on a Zeiss 410 confocal microscope, or with a Peltier-cooled Retiga 1300 12-bit CCD camera fitted on to a Leica DMIRE2 autofluorescence/DIC microscope. Images were further analyzed with SIMPLEPCI v5.2 Software (Compix, Inc.). […] No loss of fluorescence was observed when labeling experiments were performed in parallel in the presence of 1 mM NaN3 during the chase period and when worms were incubated in medium without hemin. To account for background autouluorescence in C. elegans, the sensor gain of the CCD camera or the laser was set to subtract any fluorescence obtained from control worms incubated in the presence of 40 μM hemin.

C. elegans mutant IH1048 = assay: Growth of heme resistant mutant in CeHR medium; design: key to Growth 1.6 μM hemin / Growth 0.5 μM GaPP: + = wild type equivalent In growth; ND: No growth
Description: (§1) To further increase the stringency of our genetic screen we split the contents from each 800 μM hemin selection flasks into two flasks containing either 800 μM or 1000 μM hemin. This allowed us to use another tier of positive selection to identify mutants with greater resistance to heme toxicity. Mutants from each flask were isolated and treated as a separate entity by giving an identification number based on the Genetic Nomenclature Guidelines used for C. elegans (http://biosci.umn.edu/CGC/Nomenclature/nomenguid.htm). To eliminate EMS-induced spurious mutations that could result in false positive, the mutants were outcrossed to wild-type N2 males. After five outcrosses, which replaces ˜97% of the mutant genome, mutants that bred true were selected for further analysis. Using this procedure, we isolated 13 individual mutants that were resistant to heme toxicity. These mutants were further characterized by analyzing Mendelian segregation ratios, X-linkage, phenotype penetrance, generation times, brood size, and their ability to grow under low hemin. […] This observation was surprising because we anticipated that high heme-resistant mutants will grow poorly under low heme. Based on the mutant's growth profile at low and high heme levels, we broadly categorized them into three phenotypic classes: class A, class B and class C (FIG. 13). These “phenoclusters” have the following growth phenotype: (a) three mutants IH728, IH938, IH731 show with robust growth under low and high (≧800 μM heme (FIG. 13B), (b) one mutant IH828 show exceptional growth under low heme, moderate growth at ≦800 μM heme, and no growth at 1000 μM hemin (FIG. 13C), and (c) six mutants IH921, IH11058, IH1068n, IH1068d, IH1048, and IH718 that show moderate growth under high heme (≦800 μM), but normal growth under low heme (FIG. 13D). By classifying these mutants into phenoclusters, we can focus our efforts on the phenotypic datasets to map the molecular networks and pathways involved in heme dependent processes. For instance, mutants in a cluster may have mutations within the same gene or in multiple genes but within the same pathway.
(§2) Worm Culture and Growth Assays. Free-living worms were cultured in CeHR axenic liquid medium (Dr. Eric Clegg, Personal Communication). […] CeHR medium was modified (henceforth called mCeHR) to eliminate all sources of exogenously added heme; basal growth medium comprised 20 μM hemin chloride (Frontier Scientific, Logan, Utah) and 150 μM of ferrous ammonium sulfate (Sigma Chemicals). Worm strains were grown in mCeHR medium under aerobic conditions in tissue culture flasks at 20° C. ˜3.7×10^6 worms were routinely obtained after 3.5 to 4 days in a T75 flask with 30 ml basal medium from an initial inoculum of −1.5×10^5 worms. For initial culturing of worms in axenic media, three generations of worms were sequentially bleached (1.1% bleach/0.55 M NaOH) to eliminate any contaminating bacterial carryover from agar plates. In all dose-response experiments, worms were growth synchronized by treating the gravid hermaphrodite worms with bleach to dissolve adult worms. The eggs, resistant to bleach, were liberated from the carcasses and extensively washed with M9 buffer followed by overnight hatching in M9 buffer to synchronize growth. By harvesting at appropriate time intervals, synchronous larval stages and adult staged worms were collected for experimental manipulations. Identical numbers of synchronized L1 larvae were inoculated into media with different heme concentrations in 12- or 24-well culture plates. Worm growth was monitored each day and an aliquot was obtained for counting by microscopy usually at days 3, 6, and 9. The worms in each well were counted twice and each growth condition was analyzed in triplicate. P values for statistical significance were calculated utilizing a one-way ANOVA with Student-Newman-Keuls multiple comparison test using GraphPad Instat version 3.01. […]

[1] = test system: C. elegans mutant IH1068 d; assay: Growth of heme resistant mutant in CeHR medium; design: key to Growth 1.6 μM hemin / Growth 0.5 μM GaPP: + = wild type equivalent In growth; ND: No growth
Description: as §1, §2

[2] = test system: C. elegans mutant IH1068 n; assay: Growth of heme resistant mutant in CeHR medium; design: key to Growth 1.6 μM hemin / Growth 0.5 μM GaPP: + = wild type equivalent In growth; ND: No growth
Description: as §1, §2

Substance: hemin chloride
- hemin concentration of growth medium giving dramatic decline in ZnMP fluorescence (C. elegans): ≥ 100 µM
- hemin concentration of growth medium giving robust uptake of fluorescent ZnMP (C. elegans): ≤ 20 µM
- Growth 1.6 μM hemin (C. elegans mutant IH1048): +
- Generation time (Days) 800 μM (C. elegans mutant IH1048; 800 μM hemin): 4 days
- Growth 1.6 μM hemin [1]: +
- brood size 20 μM ([1]; 20 μM hemin, average in 24 well plates): 12.4
- Generation time (Days) 800 μM ([1]; 800 μM hemin): 4 days
- Growth 1.6 μM hemin [2]: +
- Generation time (Days) 20 μM ([2]; 20 μM hemin): 4 days
